Measurements published in paper PMC5399792 (Nucleic Acids Research, 2017).
Where “and” joins values, the source holds several entries; their conditions need not be identical. Equal values may be shown once. Read-outs that look alike come from different tables or passages of the source.

Tests used:
[1] = molecular target: influenza B polymerase, vPol (c5' hook) (Influenza B virus, UniProt Q5V8Y6); experiment: biochemical; design: species or system influenza B/Memphis/13/03
[2] = molecular target: T1, influenza B polymerase initiating RNA synthesis at the vRNA promoter (vPol) (Influenza B virus, UniProt Q5V8X3+Q5V8Y6); experiment: biochemical; conditions: IC50 (mM)
[3] = molecular target: influenza B polymerase initiating RNA synthesis at the cRNA promoter (cPol) (Influenza B virus, UniProt Q5V8Y6); experiment: biochemical; assay type: biochemical, influenza B/Memphis/13/03
influenza B polymerase = experiment: Fluorescence anisotropy/polarization protein-RNA binding; design: species or system influenza B/Memphis/13/03; conditions: for dissociation constant, polymerase + RNA (in words): each RNA separately
Description: Fluorescence spectroscopy was used to quantify protein–RNA interactions, employing either a plate reader or cuvette format. Using the cuvette, protein was successively added to FAM-Ex-5-labelled RNA (if not indicated otherwise) in binding buffer (50 mM HEPES/NaOH, 0.15 M NaCl, 10% (v/v) glycerol, 2 mM Tris(2-carboxyethyl)phosphine (TCEP), pH 7.4) at the concentrations indicated. After attaining equilibrium, total fluorescence intensity and fluorescence anisotropy were measured at T = 24°C with a fluorescence spectrometer (Photon Technology International) equipped with polarizers with excitation and emission wavelengths set to 495 and 515 nm, respectively. Total fluorescence intensity was corrected for the volume change due to addition of protein and the observed fluorescence anisotropy corrected for the change in fluorescence intensity according to Equation (1) ([17]): (1) where fb represents the fractional concentration of bound RNA, r the observed anisotropy, rf and rb the anisotropy of free and bound RNA, and If and Ib the fluorescence intensity of free and bound RNA, respectively. Using KaleidaGraph (Synergy Software), dissociation constants were derived by fitting the binding isotherms to a 1:1 binding model of RNA and protein according to Equation (2) (2) where fb represents the fractional concentration of bound RNA, L the total concentration of labelled RNA, P the concentration of protein and KD the dissociation constant.

influenza polymerase = tested on: influenza polymerase; design: method as in PMID 8585725; conditions: in vitro and cell culture experiments; cited from earlier work
[4] = molecular target: Cy3-labelled c3΄ RNA (18-mer); experiment: FRET assay of RNA-RNA interaction with c3΄ RNA; assay type: binding; conditions: FAM-labelled 5΄ RNA, T = 25°C
Description: (§1) RNA–RNA interactions were quantified by a simple FRET-assay. Briefly, ∼0.01 μM short 5΄ RNAs labelled at their 3΄ ends by FAM-Ex-5 were incubated at T = 25°C in 384 well plates (FIA plate black, 128.0/85 mm, medium binding; Greiner Bio-One GmbH, Austria) in binding buffer (50 mM HEPES/NaOH, 0.15 M NaCl, 10% (v/v) glycerol, 2 mM Tris(2-carboxyethyl)phosphine (TCEP), pH 7.4) with 3΄ RNAs labelled at their 5΄ end by Cy3 at the concentrations indicated. After attaining equilibrium (∼0.5 h), the FAM's fluorescence intensity was recorded as averaged technical triplicates (excitation / emission = 485/520 nm; 10 nm band width; CLARIOstar, BMG Labtech, Germany). The decreasing fluorescence intensity with increasing Cy3-labelled 3΄ RNA is plotted relative to its initial value as mean values of at least duplicate experiments with the standard deviation indicated. Mean values were then analysed according to Equation (2) (with P equaling the concentration of Cy3-labelled 3΄ RNA; curve fitting yielded L = 0.007 μM and 0.004 μM for FAM-Ex-5-labelled c5΄ and v5΄ nts 1–18, respectively), yielding the corresponding dissociation constants and error of the fitting routine stated. 0.2 μM FAM-Ex-5-labelled v5΄ nt 1–10 were used to study its weak interaction with either Cy3-labelled v3΄ nt 1–9 or v3΄ nt 1–18.

Cy3-labelled v3΄ nt 1–18 = experiment: FRET assay of RNA-RNA interaction with v3΄ nt 1–18; assay type: binding; conditions: FAM-labelled 5΄ RNA, T = 25°C
Description: as §1

[5] = molecular target: T1, influenza B polymerase initiating RNA synthesis at the vRNA promoter (vPol); conditions: read-out: KM of primer, vPol, 0.5 mM NTPs, 0.15 μM template v3΄ 1–18, 0.25 μM polymerase, T = 24°C
[6] = 0.025 mM NTPs, capped RNA primed, T ∼ 21°C, t = 5 min, not duplicate, read-out: IC50 (mM), vPol (c5' hook)
[7] = 0.025 mM NTPs, capped RNA primed, T ∼ 21°C, t = 5 min
[8] = 0.25 mM NTPs, capped RNA primed, T ∼ 21°C, t = 5 min
[9] = 0.025 mM NTPs, capped RNA primed, T ∼ 21°C, t = 176 or 100 min, read-out: IC50 (mM), cPol
[10] = 0.25 mM NTPs, capped RNA primed, T ∼ 21°C, t = 15 or 10 min, read-out: IC50 (mM), cPol

Question: Which results are given for Nc1ccn([C@@H]2O[C@H](COP(=O)(O)OP(=O)(O)OP(=O)(O)O)[C@@H](O)[C@H]2F)c(=O)n1 [2'F-2'dCTP]?
Answer: IC50 [1]: 0.1 mM; IC50 [2]: 0.21 mM and 1.4 mM; IC50 ([3]; IC50 (mM), cPol): 1.5 mM and 2.1 mM

Question: For “5′-UACCCUCUUGUUACUACU-3′ (chemistry not given here) [c3', anti-genomic cRNA 3΄ end, 18 nucleotides]”, which “dissociation constant, polymerase + RNA (in words)” value (“dissociation constant” below) (influenza B polymerase) is on record?
Answer: low nanomolar range

Question: With Nc1ncnc2c1ncn2[C@@H]1O[C@H](COP(=O)(O)OP(=O)(O)OP(=O)(O)O)[C@@H](O)[C@H]1F [2'F-2'dATP] as the compound, how does the IC50 [1, 6] read?
Answer: 0.03 mM

Question: What about the IC50 [2, 7] of the same compound?
Answer: 0.03 mM

Question: And the IC50 [2, 8]?
Answer: 0.3 mM

Question: What about the IC50 [3, 9] of the same compound?
Answer: 0.7 mM

Question: What about the IC50 [3, 10] of the same compound?
Answer: 0.38 mM

Question: Which IC50 [1, 6] does the source give for Nc1nc2c(ncn2[C@@H]2O[C@H](COP(=O)(O)OP(=O)(O)OP(=O)(O)O)[C@@H](O)[C@H]2F)c(=O)[nH]1 [2'F-2'dGTP] here?
Answer: 0.01 mM

Question: What about the IC50 [2, 7] of the same compound?
Answer: 0.02 mM

Question: What about the IC50 [2, 8] of the same compound?
Answer: 0.2 mM

Question: What about the IC50 [3, 9] of the same compound?
Answer: 0.28 mM

Question: And the IC50 [3, 10]?
Answer: 0.43 mM

Question: And the “mode of inhibition of influenza polymerase with respect to GTP” value (influenza polymerase)?
Answer: reversibly and competitively

Question: Which Kd [4] does the source give for 5′-pAGCAGAAGCAGAGGUAUA-3′ [c5'] here?
Answer: 0.0016 ± 0.0003 µM

Question: And the Kd ([4]; listed as c5΄)?
Answer: ~0.0016 µM

Question: What about the “dissociation constant” value (influenza B polymerase) of the same compound?
Answer: low nanomolar range

Question: And the Kd (influenza B polymerase; fluorescently labelled RNA, binding buffer pH 7.4, read-out: KD, polymerase + promoter RNA)?
Answer: < 0.01 µM

Question: And the Kd (Cy3-labelled v3΄ nt 1–18)?
Answer: 0.03 nM

Question: What about the Kd (Cy3-labelled v3΄ nt 1–18; listed as c5΄) of the same compound?
Answer: ~0.03 nM

Question: Which “dissociation constant” value (influenza B polymerase) does the source give for “5΄-UAUACCUCUGCUUCUGCU-3΄ (chemistry not given here) [v3', genomic vRNA 3΄ end, 18 nucleotides]” here?
Answer: low nanomolar range

Question: Which Km [5] does the source give for 5΄-m^7GpppAAUCUAUAAUAG-3΄ [capped RNA] here?
Answer: 0.027 ± 0.01 µM

Question: And the Km ([3]; 0.5 mM NTPs, 0.15 μM template c3΄ 1–18, 0.25 μM polymerase, T = 24°C, read-out: KM (capped RNA), cPol)?
Answer: 0.12 ± 0.03 µM

Question: With 5΄-pAGUAGUAACAAGAG-3΄ [non-capped RNA] as the compound, how does the Km [5] read?
Answer: 1.1 ± 0.2 µM

Question: What about the Km ([5]; listed as v5′ 1-14) of the same compound?
Answer: ~1 µM

Question: Which results are given for O=c1ccn([C@@H]2O[C@H](COP(=O)(O)OP(=O)(O)OP(=O)(O)O)[C@@H](O)[C@H]2F)c(=O)[nH]1 [2'F-2'dUTP]?
Answer: IC50 [1]: 0.3 mM; IC50 [2]: 0.45 mM and 3.1 mM; IC50 ([3]; IC50 (mM), cPol): 1.1 mM and 1.8 mM
